Results reported in patent US20100080852A1, “PHAMACEUTICAL COMPOSITION COMPRISING NANOPARTICLES AND CASEIN” (priority 2007, published 2010).
In brackets after ≈: the same amount, converted by molar mass. Where two headings read alike, the source gives them in different places.

What was measured:
[1] = Solubility of the drugs in MFD solution, PBS or water; format: physicochemical
Log P value of the drugs = format: physicochemical; conditions: octanol/water
Source text: The first property of hydrophobic drugs is that they are extremely hydrophobic. Log P, defined as the base 10 logarithm of the ratio of the drug solubility in octanol to the drug solubility in water, is a widely accepted measure of hydrophobicity. By “extremely hydrophobic” is meant that the Log P value of the drug is at least 4.0, preferably at least 4.5, and most preferably at least 5.0. Log P may be measured experimentally or calculated using methods known in the art. When using a calculated value for Log P, the highest value calculated using any generally accepted method for calculating Log P is used. Calculated Log P values are often referred to by the calculation method, such as Clog P, Alog P, and Mlog P. The Log P may also be estimated using fragmentation methods, such as Crippen's fragmentation method (27 J. Chem. Inf. Comput. Sci. 21 (1987)); Viswanadhan's fragmentation method (29 J. Chem. Inf. Comput. Sci. 163 (1989)); or Broto's fragmentation method (19 Eur. J. Med. Chem.-Chim. Theor. 71 (1984). Preferably the Log P value is calculated by using the average value estimated using Crippen's, Viswanadhan's, and Broto's fragmentation methods.

[2] = MFD solution, fassgf or other biorelevant, read-out: solubility in MFD solution

Structure (SMILES) | solubility [1, 2] [µg/mL] | logP (Log P value of the drugs; read-out: Log P value) | solubility ([1]; PBS, aqueous buffer, read-out: solubility in PBS) [µg/mL] | logP (Log P value of the drugs)
Cc1ccc(-c2cc(C(F)(F)F)nn2-c2ccc(S(N)(=O)=O)cc2)cc1 [Drug 1, 4-[5-(4-methylphenyl)-3-(trifluoromethyl)-1H-pyrazol-1-yl]benzenesulfonamide] | ~40 (≈ 105 µM) | 3.75 | – | –
CCc1cc(Oc2cccc(N(Cc3cccc(OC(F)(F)C(F)F)c3)C[C@@H](O)C(F)(F)F)c2)ccc1Cl [Drug 2, (2R)-3-[[3-(4-chloro-3-ethylphenoxy)phenyl][[3-(1,1,2,2-tetrafluoroethoxy)phenyl]methyl]amino]-1,1,1-trifluoro-2-propanol] | – | 10 | < 0.1 | –
CC[C@@H]1C[C@H](N(Cc2cc(C(F)(F)F)cc(C(F)(F)F)c2)C(C)=O)c2cc(C(F)(F)F)ccc2N1C(=O)OC(C)C [Drug 3, [2R,4S] 4-[acetyl-(3,5-bis-trifluoromethyl-benzyl)-amino]-2-ethyl-6-trifluoromethyl-3,4-dihydro-2H-quinoline-1-carboxylic acid isopropyl ester] | ~11 (≈ 18.4 µM) | – | – | –
c1cc[c]([Bi]([c]2ccccc2)[c]2ccccc2)cc1 [Drug 5, triphenyl bismuth] | – | – | – | 6
